Consider 3 molecules from patent US8575382B2, “Low molecular weight pharmacological activity modulators” (“Ivy Pharm” LLC, priority 2009, dated 2013).

Series [1] can be described thus: Solubility of the crystalline coordination compound. Type of series: physicochemical. As for the experimental part:
[drawing 10] […] (1.811 mmole) of AgNO3, dissolved in the minimum amount of water, are added to a suspension of 300 mg (0.904 mmole) of Pd(2,2′-dipy)Cl2 in 15 ml of water. The mixture is acidified with 0.5 ml of concentrated HNO3, homogenized in an ultrasound bath for 15 min and filtered. […] (0.905 mmole) of L-cysteine (cys), dissolved in the minimum amount of water, are added to the filtrate. The reaction mixture is evaporated in air at room temperature. […] Yield 70-75%.

Series [2] concerns A431 line human epidermoid carcinoma cells. Kind of series: Proliferative activity and death of A431 cells (cell count, propidium iodide flow cytofluorimetry). The format is cell-based. The note with it: for Proportion of dead cells / Total cells: A431; for effect on the proliferative activity of A431 cells (in words): summary of Table 2. The method, then:
The number of living and dead cells in a culture was determined after 24 and 48 hours.
A431 line human epidermoid carcinoma cells, obtained from the All-Russian Cell Culture Collection (Russian Academy of Sciences Institute of Cytology, St. Petersburg).
Cells are cultured in a CO2 incubator (New Brunswick Scientific) at +37° C. and with a CO2 content of 5%. Cells are grown in these conditions to a monolayer culture and are exposed to the action of the test compounds.
The DMEM medium (OOO PanEko, Moscow) with the addition of gentamicin K (80 mg/l), L-glutamine (300 mg/l) and fetal serum (PAA, Austria) to a final concentration of 10%, is used for culturing cells. Cells are transferred to a medium with a reduced serum content of 0.5% 24 hours before commencing an experiment.
The cells were then suspended by pipetting with an automatic pipette and were combined with the previously collected medium. Samples were centrifuged at room temperature for 5 min at 400 g, the supernatant was removed and the deposit was resuspended in pH 7.4 PBS phosphate-salt buffer.
Propidium iodide was added to a suspension of cells to a concentration of 50 μg/ml 5-10 min before measuring in a Bruker ACR 1000 flow cytofluorimeter. This stain is able to penetrate through a damaged cell membrane, and stained cells are dead.

For series [3] the test system is unchanged. The series is described as above. The format is cell-based.
Where [4] appears, read: Table 2, age of culture 24 hours, cysteine […], C—Pd […], C—Pd:C […], EGF 200 ng/ml.
[5] abbreviates: Table 2, age of culture 48 hours, cysteine […], C—Pd […], C—Pd:C […], EGF 200 ng/ml.
Where [6] appears, read: Table 2, age of culture 0 hours, cysteine […], C—Pd […], C—Pd:C […], EGF 200 ng/ml.
The mark [7] stands for this setting: AG1478 0.75 μg/ml 15 min before EGF 200 ng/ml, 24 hours.
The mark [8] stands for this setting: AG1478 0.75 μg/ml 15 min before EGF 200 ng/ml, 48 hours.
Setting [9] is: AG1478 1.0 μg/ml 15 min before EGF 200 ng/ml, 24 hours.
[10] abbreviates: AG1478 1.0 μg/ml 15 min before EGF 200 ng/ml, 48 hours.
[11] abbreviates: AG1478 2.5 μg/ml 15 min before EGF 200 ng/ml, 24 hours.
Setting [12] is: AG1478 2.5 μg/ml 15 min before EGF 200 ng/ml, 48 hours.
Where [13] appears, read: AG1478 5.0 μg/ml 15 min before EGF 200 ng/ml, 24 hours.
Setting [14] is: AG1478 5.0 μg/ml 15 min before EGF 200 ng/ml, 48 hours.

On to “[Pd2(μ-S-L-Cys)(μ-S-L-CysH)(2,2′-dipy)2](NO3)3.4.5H2O [C—Pd]”, for which the solubility result in series [1] (in acetone) is listed as “virtually insoluble”; in series [1] (in dichloromethane), “virtually insoluble”; in series [1] (in ethanol) it was “less soluble”; in series [1] (in water) it was “readily soluble”. For the same molecule, the “Proportion of dead cells” value in series [2] (setting [4]) worked out at 8%; in series [2] (setting [5]), 12%. For the same molecule, the Total cells in series [2] (setting [4]) stood at 32300 mL⁻¹; in series [2] (setting [5]), 36100 mL⁻¹; in series [3] (setting [6]), 10000 mL⁻¹. Besides, the “effect on the proliferative activity of A431 cells (in words)” value in series [2] is “stimulates the proliferative activity”.

As for `COc1cc2ncnc(Nc3cccc(Cl)c3)c2cc1OC` [AG1478, tyrphostin AG 1478], the “Proportion of dead cells” value is 20% in series [2] (setting [7]); 25% in series [2] (setting [8]); 23% in series [2] (setting [9]); 23% in series [2] (setting [10]); 27% in series [2] (setting [11]); 30% in series [2] (setting [12]). Further, the “Proportion of dead cells” value in series [2] (setting [13]) stood at 29%; in series [2] (setting [14]), 41%. Further, the Total cells in series [2] (setting [7]) was 48100 mL⁻¹; in series [2] (setting [8]), 70800 mL⁻¹; in series [2] (AG1478 1.0 μg/ml 15 min before EGF 200 ng/ml, 0 hours) it was 10000 mL⁻¹; in series [2] (setting [9]) it was 47100 mL⁻¹; in series [2] (setting [10]) it was 65700 mL⁻¹; in series [2] (AG1478 2.5 μg/ml 15 min before EGF 200 ng/ml, 0 hours) it was 10000 mL⁻¹. Further, the Total cells was found to be 39400 mL⁻¹ in series [2] (setting [11]); 61100 mL⁻¹ in series [2] (setting [12]); 10000 mL⁻¹ in series [2] (AG1478 5.0 μg/ml 15 min before EGF 200 ng/ml, 0 hours); 6400 mL⁻¹ in series [2] (setting [13]); 2100 mL⁻¹ in series [2] (setting [14]); 10000 mL⁻¹ in series [3] (AG1478 0.75 μg/ml 15 min before EGF 200 ng/ml, 0 hours).

In the case of `N[C@@H](CS)C(=O)O` [Cysteine, cysteine], the “Proportion of dead cells” value is listed as 11% in series [2] (setting [4]) and 22% in series [2] (setting [5]). In addition, the Total cells turned out to be 14700 mL⁻¹ in series [2] (setting [4]), 23500 mL⁻¹ in series [2] (setting [5]) and 10000 mL⁻¹ in series [3] (setting [6]). The “effect on the proliferative activity of A431 cells (in words)” value in series [2] is given as “no effect on stimulation of proliferative activity”.
